Reference: ChEMBL document CHEMBL1201862, “PubChem BioAssay data set” (2004)
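Briefly, cells in 96-well plates were exposed to five compound concentrations for 48 h, and endpoints were estimated by linear interpolation. GI50 = concentration required for 50% inhibition of growth.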 The source made the active and inactive calls. Cut-off read from the data, not from the text of the source: active = GI50 up to about 1.1 µM and inactive = higher.

How the values were obtained:
Test in all cases: NCI tumour cell line growth inhibition, 48 h
DMS-114 = test system: DMS-114
DMS-273 = test system: DMS-273
HOP-18 = test system: HOP-18
KM-20L2 = test system: KM-20L2
LXFL 529 = test system: LXFL 529
M19-MEL = test system: M19-MEL
RXF 631 = test system: RXF 631
SNB-78 = test system: SNB-78
XF498 = test system: XF498

Row | SMILES | GI50 (DMS-114) | GI50 (DMS-273) | GI50 (HOP-18) | GI50 (KM-20L2) | GI50 (LXFL 529) | GI50 (M19-MEL) | GI50 (RXF 631) | GI50 (SNB-78) | GI50 (XF498)
1 | Fc1cccc(Cl)c1C1SCc2nc3ccccc3n21 (centres undefined) | 20.7 µM (inactive) | 22.6 µM (inactive) | 29.7 µM (inactive) | 17.2 µM (inactive) | 35.9 µM (inactive) | 26.1 µM (inactive) | 25.3 µM (inactive) | 22.2 µM (inactive) | 27.7 µM (inactive)
2 | CCCCN(CCCC)C(=O)C(=O)C(C(=O)c1ccc(OC)cc1)c1ccc(OC)cc1 (centres undefined) | 78.7 µM (inactive) | – | > 100 µM (inactive) | > 100 µM (inactive) | > 100 µM (inactive) | – | > 100 µM (inactive) | > 100 µM (inactive) | –
3 | COC(=O)C(=O)C(C(=O)C(=O)Nc1ccc([N+](=O)[O-])cc1[N+](=O)[O-])c1nc2ccc([N+](=O)[O-])cc2nc1O (centres undefined) | > 100 µM (inactive) | > 100 µM (inactive) | 22.1 µM (inactive) | > 100 µM (inactive) | > 100 µM (inactive) | > 100 µM (inactive) | > 100 µM (inactive) | > 100 µM (inactive) | 76.7 µM (inactive)
4 | CN(C(=O)c1ccco1)C(=S)N1CCN(c2ccccn2)CC1 | – | > 100 µM (inactive) | > 100 µM (inactive) | > 100 µM (inactive) | > 100 µM (inactive) | > 100 µM (inactive) | – | > 100 µM (inactive) | > 100 µM (inactive)
5 | C(=N/NC1=NCCN1)/c1c2ccccc2c(/C=N\NC2=NCCN2)c2ccccc12 | – | 0.0759 µM (active) | 0.168 µM (active) | 0.265 µM (active) | – | 0.0757 µM (active) | – | 0.171 µM (active) | 0.0828 µM (active)
6 | COc1ccc(Sc2ccccc2[N+](=O)[O-])cc1 | – | 4.98 µM (inactive) | > 100 µM (inactive) | > 10 µM (inactive) | 27.5 µM (inactive) | 7.23 µM (inactive) | 9.75 µM (inactive) | 26.4 µM (inactive) | –
7 | CN(C(=O)c1ccc(Cl)cc1)C(=S)N1CCN(c2ccccn2)CC1 | 69.8 µM (inactive) | > 100 µM (inactive) | > 100 µM (inactive) | > 100 µM (inactive) | > 100 µM (inactive) | > 100 µM (inactive) | – | > 100 µM (inactive) | –
8 | COc1cc(OC)c2c(O)cc(CC(C)O)cc2c1 (centres undefined) | > 100 µM (inactive) | > 100 µM (inactive) | > 100 µM (inactive) | > 100 µM (inactive) | > 100 µM (inactive) | > 100 µM (inactive) | > 100 µM (inactive) | > 100 µM (inactive) | > 100 µM (inactive)
9 | CN1CCCS/C1=C1/SC(=S)N(c2ccccc2)C1=O | > 100 µM (inactive) | > 100 µM (inactive) | > 100 µM (inactive) | > 100 µM (inactive) | > 100 µM (inactive) | > 100 µM (inactive) | > 100 µM (inactive) | > 100 µM (inactive) | > 100 µM (inactive)
10 | NC(=O)c1ncn(Cc2ccccc2)c1CNC(N)=S | > 100 µM (inactive) | > 100 µM (inactive) | > 100 µM (inactive) | – | > 100 µM (inactive) | > 100 µM (inactive) | > 100 µM (inactive) | > 100 µM (inactive) | > 100 µM (inactive)
11 | O=Cc1cc2c(cc1-c1cc3c(cc1C=O)OCO3)OCO2 | > 100 µM (inactive) | 64.3 µM (inactive) | > 100 µM (inactive) | > 100 µM (inactive) | > 100 µM (inactive) | 56.8 µM (inactive) | – | > 100 µM (inactive) | –
12 | CN(C)CC1CCCCCCCCCC(CN(C)C)C1=O (centres undefined) | > 100 µM (inactive) | > 100 µM (inactive) | > 100 µM (inactive) | 61.4 µM (inactive) | > 100 µM (inactive) | 63.1 µM (inactive) | > 100 µM (inactive) | > 100 µM (inactive) | > 100 µM (inactive)
13 | CCC1=CC2CN3CCc4c([nH]c5ccccc45)C(C(=O)OC)(C2)C13 (centres undefined) | 39.4 µM (inactive) | 48.6 µM (inactive) | 47.9 µM (inactive) | 1.22 µM (inactive) | – | 42.6 µM (inactive) | – | 64.7 µM (inactive) | 35.7 µM (inactive)
14 | O=C(CCC(=O)Nc1ccc(Cl)c(Cl)c1)CC(=O)c1ccc2ccccc2c1 | 86.5 µM (inactive) | 62.4 µM (inactive) | > 100 µM (inactive) | 25.9 µM (inactive) | 42.7 µM (inactive) | > 100 µM (inactive) | > 100 µM (inactive) | > 100 µM (inactive) | –
15 | C/C(=N\NC(=O)C[N+](C)(C)C)c1sc(-c2cccnc2)nc1C | > 100 µM (inactive) | > 100 µM (inactive) | – | > 100 µM (inactive) | 67 µM (inactive) | > 100 µM (inactive) | > 100 µM (inactive) | > 100 µM (inactive) | > 100 µM (inactive)
16 | N=C(NC(=N)Nc1ccc(S(=O)(=O)Nc2cnc3ccccc3n2)cc1)Nc1ccc(Br)cc1 | > 100 µM (inactive) | > 100 µM (inactive) | > 100 µM (inactive) | > 100 µM (inactive) | > 100 µM (inactive) | > 100 µM (inactive) | > 100 µM (inactive) | > 100 µM (inactive) | > 100 µM (inactive)
17 | COc1ccc(C(c2ccccc2)(c2ccc(OC)cc2)N2C(=O)NC3C(CCCCC(=O)NCCCCCCOP(OCCC#N)N(C(C)C)C(C)C)SCC32)cc1 (centres undefined) | 17.7 µM (inactive) | 12.7 µM (inactive) | 11.8 µM (inactive) | 17.1 µM (inactive) | 11.9 µM (inactive) | 16.8 µM (inactive) | 4.06 µM (inactive) | 16.2 µM (inactive) | 15.8 µM (inactive)
18 | Cn1cc2ccccc2c1-c1nc(F)nc(Nc2ccc(N)cc2)n1 | 17.7 µM (inactive) | 10.2 µM (inactive) | – | 18 µM (inactive) | 16 µM (inactive) | 11.9 µM (inactive) | 18.3 µM (inactive) | 15.2 µM (inactive) | 12.5 µM (inactive)
19 | CC(C)(C)C(=O)OCC1CCC(n2cnc3c(=O)[nH]c(N)nc32)O1 (centres undefined) | > 100 µM (inactive) | > 100 µM (inactive) | > 100 µM (inactive) | > 100 µM (inactive) | – | > 100 µM (inactive) | – | > 100 µM (inactive) | > 100 µM (inactive)
20 | NC1=NC(c2ccccc2)CC(c2cc(Cl)cc(Br)c2O)=N1 (centres undefined) | 8.69 µM (inactive) | 7.55 µM (inactive) | 17.7 µM (inactive) | 15.7 µM (inactive) | 16.7 µM (inactive) | 12.8 µM (inactive) | 17.5 µM (inactive) | 17.2 µM (inactive) | 13.7 µM (inactive)
21 | O=C(CC(=O)N1N=C(c2ccccc2)C(/N=N/c2ccccc2Cl)C1=O)Nc1ccccc1Cl (centres undefined) | 54.1 µM (inactive) | 37.5 µM (inactive) | – | 46.3 µM (inactive) | 26.2 µM (inactive) | 32.2 µM (inactive) | 48.5 µM (inactive) | 40.9 µM (inactive) | 20.7 µM (inactive)
22 | CC1=C2N3C[C@@H](n4c(=O)n(C)c(=O)n43)C23CCC1n1c(=O)n(C)c(=O)n13 | 30.8 µM (inactive) | 38.6 µM (inactive) | > 100 µM (inactive) | > 100 µM (inactive) | 85.1 µM (inactive) | > 100 µM (inactive) | – | > 100 µM (inactive) | > 100 µM (inactive)
23 | COc1cccc2c1C(=O)c1c(O)c3c(c(O)c1C2=O)C[C@](O)(C(=O)CO)CC3OC1CC(N)C(OC2CCCCO2)C(C)O1 (some centres undefined) | – | 0.019 µM (active) | 0.383 µM (active) | 0.624 µM (active) | – | – | – | 1.24 µM (inactive) | 0.0678 µM (active)
24 | COc1cccc2c1C(=O)c1c(O)c3c(c(O)c1C2=O)C[C@@](O)(C(=O)CO)CC3OC1CC(NCCCC(OC(C)=O)OC(C)=O)C(O)C(C)O1 (some centres undefined) | 0.00703 µM (active) | < 0.0001 µM (active) | 0.00413 µM (active) | 0.000912 µM (active) | 0.00262 µM (active) | 0.00261 µM (active) | < 0.0001 µM (active) | 0.00224 µM (active) | 0.00183 µM (active)
25 | Nc1ncnc2c(C3OC(CO)C(O)C3O)n[nH]c12 (centres undefined) | 0.208 µM (active) | 0.0826 µM (active) | 0.0592 µM (active) | 0.229 µM (active) | – | 2.42 µM (inactive) | – | 0.53 µM (active) | 0.158 µM (active)
26 | COc1ccc2[nH]c3c(C)c4c(c(C)c3c2c1)CN(C)C=C4 | 0.398 µM (active) | 0.75 µM (active) | 7.38 µM (inactive) | 2.75 µM (inactive) | 0.218 µM (active) | 1.02 µM (active) | – | 0.432 µM (active) | 1.07 µM (active)
27 | COc1ccc(/C=C\c2cc(OC)c(OC)c(OC)c2)c(O)c1O [COMBRETASTATIN A-1] | 0.104 µM (active) | 0.05 µM (active) | > 26.4 µM (inactive) | 8.93 µM (inactive) | 0.611 µM (active) | 0.33 µM (active) | – | 0.0953 µM (active) | 0.0551 µM (active)
28 | CN(C)c1ccc(C(=C2C=CC(=[N+](C)C)C=C2)c2ccc(N(C)C)cc2)cc1 [GENTIAN VIOLET] | 0.13 µM (active) | 0.22 µM (active) | – | 0.206 µM (active) | 0.0579 µM (active) | 0.173 µM (active) | 0.185 µM (active) | 0.637 µM (active) | 0.0363 µM (active)
